The text below walks through data of publication PMC2737262 (Bioorganic & medicinal chemistry letters, 2009).

Broadly, the CC50 is the concentration at which the toxic effect on the cells reaches its halfway point. High values mean better tolerance by the cells, low ones harm at low concentration. A word on the EC50: it is the midpoint of the concentration-response curve.

In data set [1] the test system is wild-type HIV-1 IIIB in MT-2 human T-cells. Put plainly: MTT colorimetric assay, survival of HIV-infected MT-2 cells. Type of data set: cell-based.

In turn, `CC[C@H](C)[C@@H](CC(=O)N[C@@H](CCC(=O)O)CC(=O)O)NC(=O)C[C@@H](NC(=O)C[C@H](CCCN)NC(=O)C[C@H](Cc1c[nH]c2ccccc12)NC(=O)C[C@@H](NC(=O)C[C@H](CCC(=O)O)NC(=O)C[C@H](Cc1c[nH]c2ccccc12)NC(=O)C[C@@H](NC(=O)C[C@@H](N)CCCN)C(C)C)C(C)C)C(C)C` [βWWI-1] registered a CC50 in the data set on MT-2 cells of 100 ± 19.6 µM. The same measure, in the same setting: then `CC[C@H](C)[C@@H](CC(=O)N[C@@H](CCC(=O)O)CC(=O)O)NC(=O)C[C@@H](NC(=O)C[C@H](CCCN)NC(=O)C[C@H](Cc1cccc(C(F)(F)F)c1)NC(=O)C[C@@H](NC(=O)C[C@H](CCC(=O)O)NC(=O)C[C@H](Cc1c[nH]c2ccccc12)NC(=O)C[C@@H](NC(=O)C[C@@H](N)CCCN)C(C)C)C(C)C)C(C)C` [βWXI-a], with 150 ± 3.3 µM. On the same count and under the same terms, as for `CC[C@H](C)[C@@H](CC(=O)N[C@@H](CCC(=O)O)CC(=O)O)NC(=O)C[C@@H](NC(=O)C[C@H](CCCN)NC(=O)C[C@H](Cc1cccnc1)NC(=O)C[C@@H](NC(=O)C[C@H](CCC(=O)O)NC(=O)C[C@H](Cc1c[nH]c2ccccc12)NC(=O)C[C@@H](NC(=O)C[C@@H](N)CCCN)C(C)C)C(C)C)C(C)C` [βWXI-b], the figure is over 250 µM. enfuvirtide registered an EC50 in data set [1] of 0.0375 µM.
